What was measured:
[1] = test system: oligodendrocytes; experiment: apoptosis of oligodendrocytes after SCI (TUNEL); format: in vivo, rat; details: 28 days after SCI; for inhibition of oligodendrocyte apoptosis: vs saline; for Number of oligodendrocyte apoptic nuclei (mean ± SE; n = 12): gracilis and cuneatus fascicle, saline 14.9 ± 2
Experimental: (§1) Adult Sprague-Dawley rats (females) weighing 240-260 g were maintained in the animal facilities under standard housing conditions (22±2° C., 65% humidity, artificial light from 06.00-20.00 h). A standard dry diet and water were available ad libitum. SCI in the rat was performed as previously reported (Gorio A. et al. Proc. Natl. Acad. Sci. USA 99, 9450-9455, 2002). The lesioning apparatus is computer controlled and free of the influence of gravity force. The force applied was 1N per 1 second. Apoptosis of oligodendrocytes was determined at the level of the gracilis and cuneatus fascicle (3 mm rostrally from the site of contusion injury) 28 days after SCI using the terminal deoxynucleotidyltransferase-mediated dUTP and labeling (TUNEL) methodology. […] The following days the animals were treated s.c. at 8 am and 5 pm until the 7th day after SCI. Animals were treated with compound of formula (III) (8 mg/kg) by i.v. injection within 30 minutes after SCI, then s.c. 24 hours after SCI. The following days the animals were treated s.c. every 36 hours until the 7th day after SCI.

[2] = test system: SCI in the rat; experiment: extension of post-traumatic cavity / spared tissue at lesion site (histology); format: in vivo; details: 28 days after SCI; for Percentage of spared tissue at lesion site (mean ± SE; n = 12), Lesion Epicenter: saline 39.8 ± 3.9; for Percentage of spared tissue at lesion site (mean ± SE; n = 12), Cavity Volume: saline 46.6 ± 3.1
Experimental: as §1, with “Extension” for “Apoptosis”, “post-traumatic cavity” for “oligodendrocytes”, “performed by classical histological techniques” for “determined at the level of the gracilis and cuneatus fascicle (3 mm rostrally from the site of contusion injury)”, “SCI.” for “SCI using the terminal deoxynucleotidyltransferase-mediated dUTP and labeling (TUNEL) methodology.”

[3] = test system: CD68 positive cells; experiment: leukocyte infiltration after SCI (CD68 positive cells); format: in vivo, rat; details: for Number of infiltrated leukocytes (mean ± SE; n = 8): 15 mg/kg i.v. then s.c.
Experimental: as §1, with “Leukocyte infiltration” for “Apoptosis of oligodendrocytes”, “quantitatively estimated by CD68 positive cells 1” for “determined at the level of the gracilis”, “7” for “cuneatus fascicle (3 mm rostrally from the site of contusion injury) 28”, “SCI.” for “SCI using the terminal deoxynucleotidyltransferase-mediated dUTP and labeling (TUNEL) methodology.”

[4] = test system: SCI in the rat; experiment: free locomotion test (BBB scale) after SCI, i.v./s.c. injection; format: in vivo; details: i.v. within 30 minutes after SCI then s.c. until 7th day; (II) 15 mg/kg, (III) 8 mg/kg; FIG. 1 and 2
Experimental: Adult Sprague-Dawley rats (females) weighing 240-260 g were maintained in the animal facilities under standard housing conditions (22±2° C., 65% humidity, artificial light from 06.00-20.00 h). A standard dry diet and water were available ad libitum. […] The force applied was 1N per 1 second. Recovery from hind limb disability was evaluated by means of “free locomotion test” performed 24 hours, 4, 7, 11, 15, 19 and 27 days after SCI. The “free locomotion test” allows the detection of feet positioning, and joint rotation. The quality of functional recovery is quantitatively expressed according to the “BBB scale” developed at the Ohio University. Such a test allows the quantification of rat hind limb free locomotion deficits by observing their movements in an open space free of obstacles: 0—Lesioned rat cannot move either limbs 1—Small movement of a joint (heap or knee) From 2 to 6—Movement in progressive extension of the 3 joints 7—Good movement of the 3 joints 8—Animals walk without plantar support of the weight From 9 to 11—Animals walk from occasionally to progressively frequent with plantar support of the weight. 12—Occasional coordination of hind limbs and forelimbs during walk From 13 to 14—Progressive coordination with the forelimbs. 15—Consistent plantar support of weight and coordination during walk; occasional movement of fingers during advancement. […]

Row | SMILES | inhibition of oligodendrocyte apoptosis [1] [%] | Number of oligodendrocyte apoptic nuclei (mean ± SE; n = 12) [1] | tissue damage at the site of the lesion and extension of post-traumatic cavity, in words [2] | Percentage of spared tissue at lesion site (mean ± SE; n = 12), Lesion Epicenter [2] [%] | Percentage of spared tissue at lesion site (mean ± SE; n = 12), Cavity Volume [2] [%] | Number of infiltrated leukocytes (mean ± SE; n = 8) ([3]; Epicenter, 1 day from SCI, saline 125 ± 36) | Number of infiltrated leukocytes (mean ± SE; n = 8) ([3]; Epicenter, 7 days from SCI, saline 235 ± 54) | Number of infiltrated leukocytes (mean ± SE; n = 8) ([3]; Periphery, 1 day from SCI, saline 56 ± 13) | Number of infiltrated leukocytes (mean ± SE; n = 8) ([3]; Periphery, 7 days from SCI, saline 99 ± 32) | inhibition of leukocyte infiltration ([3]; at 24 hours and 7 days after SCI, vs saline) [%] | functional hind limb recovery (motor score, BBB scale), in words [4]
1 | CC(C)Cc1ccc([C@@H](C)C(=O)NS(C)(=O)=O)cc1 [compound of formula (II), (R)-ibuprofen methanesulfonamide] | 85 | 2.1 ± 1.2 | significantly reduced tissue damage | 48.9 ± 3.0 | 58.2 ± 2.9 | 24 ± 3 | 19 ± 3 | 3 ± 1 | 4 ± 2 | 80 | 
2 | C[C@@H](C(=O)NS(C)(=O)=O)c1ccc(OS(=O)(=O)C(F)(F)F)cc1 [compound of formula (III), R-2-[(4′-trifluoromethanesulphonyloxy)phenyl]-N-methanesulfonyl propionamide] | 65 | 5.2 ± 3.8 | significantly reduced tissue damage | 49.7 ± 4.2 | 60.4 ± 4.3 |  |  |  |  |  | significantly promoted functional hind limb recovery

Reference: patent US20090030083A1, “Use of n-(2-aryl-propionyl)-sulfonamides for the treatment of spinal cord injury” (Dompe' pha.r.ma S.p.A, priority 2004, published 2009)
